Each structure is given as a SMILES string. Counter-ions that a name gives are not always drawn.

For the assay, the target named is T1, mutant CFTR (Homo sapiens, UniProt P13569, DEL508-508).
T1 construct: expressed in transfected cells
T1 sequence (P13569 with tags, fused parts or gaps DEL508-508): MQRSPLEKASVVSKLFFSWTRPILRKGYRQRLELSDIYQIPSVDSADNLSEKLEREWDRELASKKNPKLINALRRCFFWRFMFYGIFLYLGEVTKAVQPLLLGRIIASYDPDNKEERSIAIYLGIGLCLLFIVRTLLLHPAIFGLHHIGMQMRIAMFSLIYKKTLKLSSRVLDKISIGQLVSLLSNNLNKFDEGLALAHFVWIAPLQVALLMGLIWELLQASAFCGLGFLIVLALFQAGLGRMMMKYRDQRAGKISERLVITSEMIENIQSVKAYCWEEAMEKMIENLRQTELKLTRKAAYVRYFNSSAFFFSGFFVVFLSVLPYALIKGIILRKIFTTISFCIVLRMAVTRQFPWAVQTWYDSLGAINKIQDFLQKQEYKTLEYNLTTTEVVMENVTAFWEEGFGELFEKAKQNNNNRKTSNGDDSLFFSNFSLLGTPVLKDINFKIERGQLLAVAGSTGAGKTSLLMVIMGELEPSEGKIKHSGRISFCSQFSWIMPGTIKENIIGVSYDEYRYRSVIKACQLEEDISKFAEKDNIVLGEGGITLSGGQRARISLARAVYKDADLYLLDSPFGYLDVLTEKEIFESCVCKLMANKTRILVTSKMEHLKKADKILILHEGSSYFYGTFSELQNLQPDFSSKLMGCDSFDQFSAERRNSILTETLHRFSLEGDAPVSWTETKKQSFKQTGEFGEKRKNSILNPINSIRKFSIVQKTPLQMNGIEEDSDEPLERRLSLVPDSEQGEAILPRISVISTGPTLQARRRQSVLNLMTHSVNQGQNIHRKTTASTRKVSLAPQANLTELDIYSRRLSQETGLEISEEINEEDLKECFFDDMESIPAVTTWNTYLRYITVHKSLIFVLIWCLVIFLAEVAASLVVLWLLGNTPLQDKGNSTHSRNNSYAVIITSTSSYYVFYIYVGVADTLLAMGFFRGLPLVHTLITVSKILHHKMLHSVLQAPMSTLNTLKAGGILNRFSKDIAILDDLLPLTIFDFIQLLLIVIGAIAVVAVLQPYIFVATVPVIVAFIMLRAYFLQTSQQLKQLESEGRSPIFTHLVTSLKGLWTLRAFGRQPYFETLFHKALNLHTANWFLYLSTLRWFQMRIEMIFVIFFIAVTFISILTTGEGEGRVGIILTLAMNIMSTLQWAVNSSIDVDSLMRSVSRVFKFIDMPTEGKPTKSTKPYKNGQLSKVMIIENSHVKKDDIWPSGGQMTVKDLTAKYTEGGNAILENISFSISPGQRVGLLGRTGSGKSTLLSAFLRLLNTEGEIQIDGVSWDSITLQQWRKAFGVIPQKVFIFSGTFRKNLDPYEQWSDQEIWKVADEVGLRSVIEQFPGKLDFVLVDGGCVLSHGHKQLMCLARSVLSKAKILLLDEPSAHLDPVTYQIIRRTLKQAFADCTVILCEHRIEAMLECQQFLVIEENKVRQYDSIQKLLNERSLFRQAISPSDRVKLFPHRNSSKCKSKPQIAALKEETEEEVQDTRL
Put plainly: Fluorescence (HS-YFP) assay for CFTR activity, corrector assay. In kind it is cell-based. To be noted: CFBE41o- and FRT cells with stable expression of mutant CFTR, read-out: activity (EC50).
By EC50 is commonly meant the concentration that produces a half-maximal response. With `CN(C(=O)c1cccc(-n2nc(C(F)(F)F)c3c2C(Oc2ccc(C(N)=O)cc2)CCC3)c1)c1ccc2c(c1)OC(F)(F)O2` (single isomer, unassigned) [Compound 284, (S) or (R)-3-[7-(4-Carbamoylphenoxy)-3-(trifluoromethyl)-4,5,6,7-tetrahydroindazol-1-yl]-N-(2,2-difluoro-1,3-benzodioxol-5-yl)-N-methyl-benzamide], the half-maximal effective concentration (EC50) was less than 1000 nM. For the molecule `CN(C(=O)c1cccc(-n2nc(C(F)(F)F)c3c2C(Oc2ccc(C(N)=O)cc2)CCC3)c1)c1ccc2c(c1)OC(F)(F)O2` (single isomer, unassigned) [Compound 285, (R) or (S)-3-[7-(4-Carbamoylphenoxy)-3-(trifluoromethyl)-4,5,6,7-tetrahydroindazol-1-yl]-N-(2,2-difluoro-1,3-benzodioxol-5-yl)-N-methyl-benzamide], the EC50 was less than 1000 nM.

On to `Cc1nc2ncc(N(C)C(=O)c3cccc(-n4nc(C(F)(F)F)c5c4C(Oc4ccc(C(=O)O)cc4)CCC5)c3)cc2o1` (single isomer, unassigned) [Compound 286, (R) or (S)-4-[[1-[3-[Methyl-(2-methyloxazolo[4,5-b]pyridin-6-yl)carbamoyl]phenyl]-3-(trifluoromethyl)-4,5,6,7-tetrahydroindazol-7-yl]oxy]benzoic acid], for which the EC50 lay in the range of 1000 to 2000 nM. With `Cc1nc2ncc(N(C)C(=O)c3cccc(-n4nc(C(F)(F)F)c5c4C(Oc4ccc(C(=O)O)cc4)CCC5)c3)cc2o1` (single isomer, unassigned) [Compound 287, (S) or (R)-4-[[1-[3-[Methyl-(2-methyloxazolo[4,5-b]pyridin-6-yl)carbamoyl]phenyl]-3-(trifluoromethyl)-4,5,6,7-tetrahydroindazol-7-yl]oxy]benzoic acid] the figure was less than 1000 nM; with `CN(C(=O)c1cccc(-n2nc(C(F)(F)F)c3c2C(Oc2ccc(C(=O)O)cc2)CCC3)c1)c1ccnc(OC(F)F)c1` (single isomer, unassigned) [Compound 288, (R) or (S)-4-[[1-[3-[[2-(Difluoromethoxy)-4-pyridyl]-methyl-carbamoyl]phenyl]-3-(trifluoromethyl)-4,5,6,7-tetrahydroindazol-7-yl]oxy]benzoic acid], less than 1000 nM. As to `CN(C(=O)c1cccc(-n2nc(C(F)(F)F)c3c2C(Oc2ccc(C(=O)O)cc2)CCC3)c1)c1ccnc(OC(F)F)c1` (single isomer, unassigned) [Compound 289, (S) or (R)-4-[[1-[3-[[2-(Difluoromethoxy)-4-pyridyl]-methyl-carbamoyl]phenyl]-3-(trifluoromethyl)-4,5,6,7-tetrahydroindazol-7-yl]oxy]benzoic acid], the EC50 is less than 1000 nM. In the case of `CN(C(=O)c1cccc(-n2nc(C(F)(F)F)c3c2C(Oc2ccc(C(=O)O)cc2)COC3)c1)c1ccnc(OC(F)F)c1` (single isomer, unassigned) [Compound 290, (R) or (S)-4-[[1-[3-[[2-(Difluoromethoxy)-4-pyridyl]-methyl-carbamoyl]phenyl]-3-(trifluoromethyl)-6,7-dihydro-4H-pyrano[4,3-c]pyrazol-7-yl]oxy]benzoic acid], the EC50 is less than 1000 nM. Under `CN(C(=O)c1cccc(-n2nc(C(F)(F)F)c3c2C(Oc2ccc(C(=O)O)cc2)COC3)c1)c1ccnc(OC(F)F)c1` (single isomer, unassigned) [Compound 291, (S) or (R)-4-[[1-[3-[[2-(difluoromethoxy)-4-pyridyl]-methyl-carbamoyl]phenyl]-3-(trifluoromethyl)-6,7-dihydro-4H-pyrano[4,3-c]pyrazol-7-yl]oxy]benzoic acid] stands 1000 to 2000 nM.

Take `CN(C(=O)c1cccc(-n2nc(C(F)(F)F)c3c2C(Oc2ncc(C(=O)O)cn2)COC3)c1)c1ccc2c(c1)OCC2` (single isomer, unassigned) [Compound 298, (R) or (S)-2-[[1-[3-[2,3-dihydrobenzofuran-6-yl(methyl)carbamoyl]phenyl]-3-(trifluoromethyl)-6,7-dihydro-4H-pyrano[4,3-c]pyrazol-7-yl]oxy]pyrimidine-5-carboxylic acid]: the EC50 was less than 1000 nM. Under `CN(C(=O)c1cccc(-n2nc(C(F)(F)F)c3c2C(Oc2ncc(C(=O)O)cn2)COC3)c1)c1ccc2c(c1)OCC2` (single isomer, unassigned) [Compound 299, (S) or (R)-2-[[1-[3-[2,3-dihydrobenzofuran-6-yl(methyl)carbamoyl]phenyl]-3-(trifluoromethyl)-6,7-dihydro-4H-pyrano[4,3-c]pyrazol-7-yl]oxy]pyrimidine-5-carboxylic acid] stands 1000 to 2000 nM; under `CN(C(=O)c1cccc(-n2nc(C(F)(F)F)c3c2C(Oc2ccc(CO)cc2)CCC3)c1)c1ccc2c(c1)OC(F)(F)O2` (stereo in doubt) [Compound 304, N-(2,2-Difluoro-1,3-benzodioxol-5-yl)-3-[(S)-7-[4-(hydroxymethyl)phenoxy]-3-(trifluoromethyl)-4,5,6,7-tetrahydroindazol-1-yl]-N-methyl-benzamide], less than 1000 nM; under `CN(C(=O)c1cccc(-n2nc(C(F)(F)F)c3c2CCN(C(=O)OC(C)(C)C)C3)c1)c1ccc2c(c1)OCO2` [Compound 001, Tert-butyl 1-[3-[1,3-benzodioxol-5-yl(methyl)carbamoyl]phenyl]-3-(trifluoromethyl)-6,7-dihydro-4H-pyrazolo[4,3-c]pyridine-5-carboxylate], less than 1000 nM. With `CN(C(=O)c1cccc(-n2nc(C(F)(F)F)c3c2CCNC3)c1)c1ccc2c(c1)OCO2` [Compound 002, N-(1,3-Benzodioxol-5-yl)-N-methyl-3-[3-(trifluoromethyl)-4,5,6,7-tetrahydropyrazolo[4,3-c]pyridin-1-yl] benzamide hydrochloride] the figure was less than 1000 nM. Under `CC(=O)N1CCc2c(c(C(F)(F)F)nn2-c2cccc(C(=O)N(C)c3ccc4c(c3)OCO4)c2)C1` [Compound 004, 3-[5-Acetyl-3-(trifluoromethyl)-6,7-dihydro-4H-pyrazolo[4,3-c]pyridin-1-yl]-N-(1,3-benzodioxol-5-yl)-N-methyl-benzamide] stands less than 1000 nM; under `CN(C(=O)c1cccc(-n2nc(C(F)(F)F)c3c2CCCC3)c1)c1ccc2c(c1)OCO2` [Compound 005, N-(1,3-Benzodioxol-5-yl)-N-methyl-3-[3-(trifluoromethyl)-4,5,6,7-tetrahydroindazol-1-yl]benzamide], less than 1000 nM; under `CN(C(=O)c1cccc(-n2nc(C(F)(F)F)c3c2CCN(S(C)(=O)=O)C3)c1)c1ccc2c(c1)OCO2` [Compound 006, N-(1,3-Benzodioxol-5-yl)-N-methyl-3-[5-methylsulfonyl-3-(trifluoromethyl)-6,7-dihydro-4H-pyrazolo[4,3-c]pyridin-1-yl]benzamide], less than 1000 nM. For `CN(C(=O)c1cccc(-n2nc(C(F)(F)F)c3c2CCN(S(=O)(=O)c2ccccc2)C3)c1)c1ccc2c(c1)OCO2` [Compound 007, 3-[5-(Benzenesulfonyl)-3-(trifluoromethyl)-6,7-dihydro-4H-pyrazolo[4,3-c]pyridin-1-yl]-N-(1,3-benzodioxol-5-yl)-N-methyl-benzamide], the EC50 is less than 1000 nM. With `CN(C(=O)c1cccc(-n2nc(C(F)(F)F)c3c2CCN(C(=O)c2ccccc2)C3)c1)c1ccc2c(c1)OCO2` [Compound 008, N-(1,3-Benzodioxol-5-yl)-3-[5-benzoyl-3-(trifluoromethyl)-6,7-dihydro-4H-pyrazolo[4,3-c]pyridin-1-yl]-N-methyl-benzamide], the EC50 is less than 1000 nM. On to `COC(=O)N1CCc2c(c(C(F)(F)F)nn2-c2cccc(C(=O)N(C)c3ccc4c(c3)OCO4)c2)C1` [Compound 009, Methyl 1-[3-[1,3-benzodioxol-5-yl(methyl)carbamoyl]phenyl]-3-(trifluoromethyl)-6,7-dihydro-4H-pyrazolo[4,3-c] pyridine-5-carboxylate], for which the EC50 was less than 1000 nM. Under `CN(C(=O)c1cccc(-n2nc(C(F)(F)F)c3c2CCN(C[C@@H]2COC(C)(C)O2)C3)c1)c1ccc2c(c1)OCO2` [Compound 013, N-(1,3-Benzodioxol-5-yl)-3-[5-[[(4R)-2,2-dimethyl-1,3-dioxolan-4-yl]methyl]-3-(trifluoromethyl)-6,7-dihydro-4H-pyrazolo[4,3-c]pyridin-1-yl]-N-methyl-benzamide] stands less than 1000 nM; under `CN(C(=O)c1cccc(-n2nc(C(F)(F)F)c3c2CCN(C[C@H]2COC(C)(C)O2)C3)c1)c1ccc2c(c1)OCO2` [Compound 014, N-(1,3-Benzodioxol-5-yl)-3-[5-[[(4S)-2,2-dimethyl-1,3-dioxolan-4-yl]methyl]-3-(trifluoromethyl)-6,7-dihydro-4H-pyrazolo[4,3-c]pyridin-1-yl]-N-methyl-benzamide], less than 1000 nM; under `CN(C(=O)c1cccc(-n2nc(C(F)(F)F)c3c2CCN(C[C@@H](O)CO)C3)c1)c1ccc2c(c1)OCO2` [Compound 015, N-(1,3-Benzodioxol-5-yl)-3-[5-[(2R)-2,3-dihydroxypropyl]-3-(trifluoromethyl)-6,7-dihydro-4H-pyrazolo[4,3-c]pyridin-1-yl]-N-methyl-benzamide], less than 1000 nM. With `CN(C(=O)c1cccc(-n2nc(C(F)(F)F)c3c2CCN(C[C@H](O)CO)C3)c1)c1ccc2c(c1)OCO2` [Compound 016, N-(1,3-Benzodioxol-5-yl)-3-[5-[(2S)-2,3-dihydroxypropyl]-3-(trifluoromethyl)-6,7-dihydro-4H-pyrazolo[4,3-c]pyridin-1-yl]-N-methyl-benzamide] the figure was less than 1000 nM; with `CN1CCOc2c(c(C(F)(F)F)nn2-c2cccc(C(=O)N(C)c3ccc4c(c3)OCO4)c2)C1` [Compound 017, N-(1,3-Benzodioxol-5-yl)-N-methyl-3-[5-methyl-3-(trifluoromethyl)-6,7-dihydro-4H-pyrazolo[4,3-f][1,4]oxazepin-1-yl]benzamide], less than 1000 nM. Under `CN(C(=O)c1cccc(-n2nc(C(F)(F)F)c3c2CCN(CC2CC2)C3)c1)c1ccc2c(c1)OCO2` [Compound 019, N-(1,3-Benzodioxol-5-yl)-3-[5-(cyclopropylmethyl)-3-(trifluoromethyl)-6,7-dihydro-4H-pyrazolo[4,3-c]pyridin-1-yl]-N-methyl-benzamide] stands less than 1000 nM.

The values above are taken from patent US10968225B2, “Compounds and compositions for the treatment of cystic fibrosis” (Fondazione Istituto Italiano Di Tecnologia, priority 2017, dated 2021).
